Experimental data taken from patent US8524674B2, “Method of improving the conditioned reflex habit, the muscle tonus, or the motion coordination of a patient after suffering trauma to the brain cortex” (Obschestvo S Ogranichennoi Otvetstvennostyu “Sia Peptides”, priority 2006, dated 2013).
Where “and” joins values, the source holds several entries; their conditions need not be identical. Equal entries are not always repeated. Residues, ends and D or L forms follow the SMILES beside them.

Columns and labels:
[1] = tested on: rats with heavy compression cranial trauma; assay: Reparative processes in rat brain cortex after acute heavy cranial trauma (CAAR, rotating rod); assay type: in vivo, white mongrel rats
From the text: The effect of peptide H-Glu-Asp-Arg-OH on reparative processes in the brain was estimated on the pattern of acute heavy cranial trauma. The dynamics of central nervous system functions restoration were identified by testing motion coordination and muscle tonus of the animals, as well as their ability to learning and reproducing the conditioned reflex habit.
24 white mongrel rats were subjected to heavy compression cranial trauma from a falling leaden bob.
The estimation of the rats' ability to learn and reproduce the habits was performed using the test of conditioned active avoidance reflex (CAAR). Muscle tonus and motion coordination were tested by rotating the rats on a rod with increasing speed and measuring the time of their holding on to the rod.

[2] = tested on: rats with spinal cord trauma; assay: Morphologic alterations in the central nervous system in spinal cord trauma; assay type: in vivo, Wistar rats
Procedure: The study was performed on mature Wistar rats of both sexes with body weight of 180-200 g. The experimental group of 27 rats was subjected to spinal cord trauma.
The animals were injured in the lumbar segment of the spinal cord according to the following method. The lateral surfaces of anesthetized rats' vertebrae on the level of the last rib were compressed through the skin using dressing forceps with a force of 15 kg on the working surfaces. In 24 hours after the trauma the surviving animals were subdivided into 2 groups.
The rats of the second group (control) received sterile physiological saline solution in the same volume.
Neurohistological studies were performed in the animals of both groups on the 30th day of the experiment. For this purpose spinal cord ganglia were taken from the spots of injury and above the injured spots, as well as lumbar and cervical segments of the spinal cord and motor cortex fragments and pyramid tracts of the brain. Neurohistological studies were performed using electronic and luminous microscopy.
The samples intended for luminous microscopy were fixed in 96% spirit and 10% formalin, then packed into celloidin with subsequent staining with hematoxylin-eosine, as well as staining by Nissle, Van Gison, Weigert, Spielmeyer. The samples were fixed and cut in accordance with conventional methods of histological processing and staining of the samples.
The samples intended for electronic microscopy were fixed by 2% osmic acid with cacodylate buffer, then packed in Epon 812 and contrasted in lead […] by Reynolds. The preliminary evaluation of the samples was performed using semifine sections. Ultrafine sections were studied using electronic microscope UEM-100SKh.

white mongrel male rats = assay: Study of sub-acute toxicity, 90 days; assay type: in vivo; conditions: long-term administration, doses exceeding the therapeutic one by 100-1000 times
Procedure: The study of sub-acute toxicity was performed on 65 white mongrel male rats with body weight of 160-210 g. […] Morphology and properties of the animals' peripheral blood were studied before the administration of the substance, as well as on the 30th, 60th and 90th day after the beginning of the administration. Upon completion of the experiment biochemical and coagulologic indices of the blood were also evaluated.

brain cortex explants = assay: Development of brain cortex explants (area index); assay type: cell-based, Wistar rats
Procedure: This study was performed on 32 fragments of brain cortex from Wistar rats with body weight of 150-200 g. Nutritional medium for explants cultivation consisted of 35% Eagle's solution, 25% calf fetal serum, 35% Hank's solution, 5% chicken embryonic extract, with the addition of glucose (0.6%), insulin (0.5 units/ml), penicillin (100 units/ml), glutamine (2 mM). […] Peptide H-Glu-Asp-Arg-OH was added into the medium, reaching ultimate concentration of 1, 10 and 100 ng/ml.
Area index (AI), i.e. the ratio of total explant area together with the growth zone to the initial area of brain cortex fragment served as the criterion of biologic activity. The statistical significance of the difference between the compared mean AI values was evaluated using Student's t-criterion. AI values were expressed in percent, control AI values being considered as 100%.

[3] = tested on: rat brain cortex in hypoxia; assay: Free radical oxidation reactions in rat brain cortex in hypoxia; assay type: in vivo, white mongrel rats
Procedure: The study was performed on 18 white mongrel rats. Peptide H-Glu-Asp-Arg-OH was administered to the animals intraperitoneally, in the dose of 1 μg in 1.0 ml of sterile physiological 0.9% NaCl solution once a day for 10 days. 24 hours after the completion of peptide administration the animals were subjected to hypoxic hypoxia. Hypoxia was modeled in the altitude chamber of flow-ejector type, the atmosphere pressure in the chamber being 0.029 MPa, which corresponds to the altitude of 9000 m above sea level. Compression and decompression rate made 0.005 MPa per minute. Carbon dioxide and moisture absorbent was present in the altitude chamber. The animals were held in the chamber for 3 hours in the conditions of free conduct and under constant observation.
The intensity of peroxide lipid oxidation (POL) was estimated judging by the level of initial POL products, i.e. diene conjugates, and terminal products, i.e. Schiff's bases, playing a significant role in neurons damage. The level of protein peroxidation was estimated by the level of carbonyl derivative amino acids in proteins after interaction with 2,4-dinitrophenylhydrazine.

white mongrel male mice = conditions: mouse, in vivo
Procedure: The study of acute toxicity was performed on 72 white mongrel male mice with body weight of 20-22 g. The animals were randomly subdivided into 6 equal groups. The substance was administered to the animals once, intramuscularly, in the doses of 1 mg/kg, 2 mg/kg, 3 mg/kg, 4 mg/kg, 5 mg/kg in 0.25 ml of sterile 0.9% NaCl solution. The control animals received 0.9% NaCl solution in the same volume.

[4] = tested on: patients with remote consequences of cranial trauma; assay: Efficacy in patients with consequences of cranial trauma (clinical result, corrective test, EEG alpha index); assay type: in vivo; conditions: patients of the main groups after treatment
Procedure: This study was performed on 25 patients aged 31-60 with remote consequences of cranial trauma, who were randomly subdivided into 2 groups. These patients sustained cranial traumas from 1 to 10 years ago. Main group patients were subdivided into 3 groups depending on the severity of their cranial trauma. Patients with the most severe consequences of cranial trauma received the pharmaceutical composition containing peptide H-Glu-Asp-Arg-OH once a day, intramuscularly, in the dose of 5.0 mg in 1 ml of sterile 0.9% NaCl solution for 10 days. Main group patients with cranial trauma consequences of intermediate severity were treated with the pharmaceutical composition containing peptide H-Glu-Asp-Arg-OH once a day, intramuscularly, in the dose of 10.0 μg in 1 ml of sterile 0.9% NaCl solution for 10 days. Main group patients with mild consequences of cranial trauma received the pharmaceutical composition containing peptide H-Glu-Asp-Arg-OH once a day, intramuscularly, in the dose of 1.0 μg in 1.0 ml of sterile 0.9% NaCl solution for 10 days.
The efficacy of the pharmaceutical composition containing H-Glu-Asp-Arg-OH peptide was estimated judging by the effect on integral function of the brain, i.e., attention, and on bioelectric activity of the brain using the corrective test and electroencephalogram.
The evaluation of the effect of pharmaceutical composition containing peptide H-Glu-Asp-Arg-OH on bioelectric activity of the brain was performed by means of calculating the alpha index before and after the treatment.

male guinea pigs [5] = conditions: guinea pig, in vivo
Procedure: (§1) The studies of chronic toxicity were conducted for 6 months, basing on the term of recommended clinical administration of the substance, on 84 male guinea pigs with body weight of 270-310 g. Experimental animals received the peptide daily, once a day, intramuscularly, for 6 months in the doses of 1 μg/kg, 0.1 mg/kg, 1 mg/kg in 0.5 ml of sterile 0.9% NaCl solution. Control animals received sterile 0.9% NaCl solution in the same volume and by the same schedule. Traditional methods were used for the evaluation of the following indices of the animals' peripheral blood: the quantity of erythrocytes, hemoglobin, reticulocytes, thrombocytes, leukocytes, leukocyte formula, erythrocyte sedimentation rate (ESR), erythrocyte resistance. Alongside with that, the content of total protein in the serum was identified using Lowry's method, as well as potassium and sodium content using the method of plasma spectrophotometry. After the completion of the experiment pathomorphologic studies of animal brain and spinal cord, spinal cord ganglia, thyroid gland, parathyroid glands, adrenal glands, testis, pituitary body, heart, lungs, aorta, liver, kidneys, urinary bladder, pancreas, stomach, small intestine, large intestine, thymus, spleen, lymph nodes and bone marrow were performed.

male guinea pigs [6] = assay: Study of chronic toxicity, 6 months; conditions: guinea pig, in vivo
Procedure: as §1

[7] = tested on: isolated neurons of Astacus leptodactilus crayfish; assay: Life span of isolated crayfish neurons; assay type: cell-based; conditions: 10 μg/ml
Procedure: Isolated neurons of Astacus leptodactilus crayfish for the in vitro study of peptide H-Glu-Asp-Arg-OH on their life span were extracted by axotomia, being regarded as a model of cell death by apoptosis.
Stretching receptor neurons of a crayfish closely resemble central neurons of vertebrals by their electrophysiological, biological and structure properties. They generate spikes with nearly constant rate during 10-15 hours. Two symmetrical neurons (control and experimental) extracted from the abdominal segment were placed into 2 ml chambers filled with Harreveld's solution. Neuronal potentials were registered extracellularly on the axons by fastened glass pipette electrodes, then amplified and recorded using H-338 recorder. At the same time the frequency of action potentials was registered using two-channel analog frequency meter and H-339 data recorders. In the beginning of the experiment impulse frequency of experimental and control neurons was set on the level of 10-15 Hz by the stretching of the muscle. After 1 hour of stabile spike generation with constant rate peptide H-Glu-Asp-Arg-OH in the concentration of 10 μg/ml was added into the experimental chamber. The activity of the neurons was constantly recorded before the spontaneous termination of spikes generation. Life span of neurons was compared for each couple. Altogether 10 couples of neurons were used.

[8] = 10 μg/kg intramuscularly daily for 10 days, 30th day
[9] = 1 μg intraperitoneally once a day for 10 days, then hypoxia

SMILES: N=C(N)NCCC[C@H](NC(=O)[C@H](CC(=O)O)NC(=O)[C@@H](N)CCC(=O)O)C(=O)O [peptide H-Glu-Asp-Arg-OH, glutamyl-aspartyl-arginine] (H-Glu-Asp-Arg-OH)
- time of holding on to the rod relative to the control (rotating rod test) ([1]; 48 hours after the trauma, 10 μg/kg intramuscularly): more than 2 times
- number of animals capable of learning relative to the control ([1]; 96 hours after the trauma, 10 μg/kg intramuscularly, CAAR test): 2 times
- indices of the animals' learning ability ([1]; by the 14th day after the trauma): close to normal values
- indices of learning ability ([1]; in 30 days, 10 μg/kg intramuscularly): higher than in the control
- alterations in nerve cells and outgrowths of upper spinal cord segments [2, 8]: less pronounced
- neuronal cell cytoplasm, electronic microscopy [2, 8]: signs of restoration in the neuronal cells cytoplasm
- type of neuronal alterations in the spinal cord at the injury spot ([2]; 10 μg/kg intramuscularly daily for 10 days, 30th day, luminous microscopy, control showed much more heavy and ischemic alterations): mainly “primarily irritated” cells
- effect on spinal cord neurons regeneration ([2]; animals with spinal cord trauma): stimulating effect on spinal cord neurons regeneration
- side effects, subacute toxicity (white mongrel male rats): absence of any side effects
- Area index (AI) growth as compared to the control (brain cortex explants; 10 ng/ml, 3rd day of cultivation, statistically significant): 37%
- neurites stimulation of cortex explants (brain cortex explants; after 7 days of cultivating, same concentrations): same effects of neurites stimulation
- Diene conjugates [3, 9]: 28.57 ± 1.84 nmole/g of tissue
- Level of proteins peroxidation [3, 9]: 4.68 ± 0.07 μmole/mg of protein
- Schiff's bases [3, 9]: 255.4 ± 26.8 conv. units/g of tissue
- change in Schiff's bases content ([3]; hypoxia, vs control): tendency towards a decrease
- change in the level of diene conjugates ([3]; hypoxia, vs control): statistically significant decrease
- protein peroxidation ([3]; hypoxia, vs control): inhibited protein peroxidation
- toxic reactions (white mongrel male mice): does not cause toxic reactions
- Number of mistakes (corrective test) ([4]; before treatment 12.6 ± 1.3): 6.4 ± 1.1
- Alpha index (EEG) ([4]; before treatment 35.7 ± 4.6): 47.9 ± 3.1
- Number of registered signs (corrective test) ([4]; before treatment 1519.1 ± 141.7): 2429.6 ± 105.3
- changes in blood morphology and biochemical indices (male guinea pigs [5]): no statistically significant changes
- side effects, chronic toxicity (male guinea pigs [5]): absence of any side effects
- pathologic alterations in the organism (general status, blood indices, organ morphology, cardiovascular, respiratory, liver and kidney functions) (male guinea pigs [6]): no pathologic alterations
- Life span of isolated crayfish neurons ([7]; control 11.9 hours): 13.7 h and 13.7 ± 0.2 h
- prolongation of the life span of isolated neurons ([7]; vs control): 15%
